Experimental findings from patent publication US20260125375A1 (Pfizer Inc., priority 2022, published 2026) are described below.

Structures are written as SMILES.

One assay concerns the target T1, C-CBL (46-435) (Homo sapiens, UniProt P22681).
T1 construct: N-terminal biotinylated WT CBL-B (36-427) and C-CBL (46-435) were captured on a streptavidin (SA) coated sensor chip
T1 sequence (P22681 46-435): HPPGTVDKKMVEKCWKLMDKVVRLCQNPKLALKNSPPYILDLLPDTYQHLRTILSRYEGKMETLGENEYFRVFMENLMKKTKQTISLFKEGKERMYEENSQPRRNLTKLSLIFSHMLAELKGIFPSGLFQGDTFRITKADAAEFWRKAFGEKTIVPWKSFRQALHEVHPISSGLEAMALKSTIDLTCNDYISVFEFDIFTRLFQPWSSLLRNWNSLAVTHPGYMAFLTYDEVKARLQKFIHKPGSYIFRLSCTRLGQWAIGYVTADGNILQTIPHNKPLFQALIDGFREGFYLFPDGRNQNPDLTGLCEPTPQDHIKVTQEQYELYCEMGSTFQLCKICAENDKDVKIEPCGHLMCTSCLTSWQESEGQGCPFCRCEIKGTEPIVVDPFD
As to the kind of experiment: Surface Plasmon Resonance (SPR) assay, binding affinity and kinetics, C-CBL. As to conditions: SPR at 10° C., biotinylated C-CBL (46-435) on streptavidin chip; geometric mean; read-out: C-CBL SPR Kd (nM) GMean. In outline: (§1)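 Biotinylated WT CBL-B (36-427) or C-CBL (46-435) captured on streptavidin chip (~5000–6000 RU); binding at 10° C in HEPES buffer pH 7.2 with 2% DMSO. Multi-cycle: 2-fold, 10-point series from 10 or 100 μM, 90 s association. Single-cycle: 3-fold, 6-point, 0.001–1 μM, 120 s association, >5400 s dissociation.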

In the next assay the target is T2, C-CBL (residues 46-435) (Homo sapiens, UniProt P22681).
T2 construct: Purified CBL-B (residues 36-427) and C-CBL (residues 46-435) proteins from baculovirus-infected insect cells; made in house; host or cells: baculovirus-infected insect cells
T2 sequence (P22681 46-435): T1 sequence (P22681 46-435)
As to the kind of experiment: Ligand Displacement Assay (LDA), HTRF competitive binding against BODIPY-labeled fluorescent tracer, C-CBL. As to conditions: geometric mean of the number of tests, read-out: C-CBL Ki (nM) GMean. In outline:
(§2)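 Ki values, given as geometric means of repeated tests, come from TR-FRET displacement of a BODIPY-labelled tracer from terbium-streptavidin-bound, AviTag-biotinylated protein made in baculovirus-infected insect cells. Compounds ran as three-fold dilutions in duplicate, […], 2% DMSO.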

The target in a further assay is T3, WT CBL-B (36-427) (Homo sapiens, UniProt Q13191).
T3 construct: N-terminal biotinylated WT CBL-B (36-427) and C-CBL (46-435) were captured on a streptavidin (SA) coated sensor chip
As to the kind of experiment: Surface Plasmon Resonance (SPR) assay, binding affinity and kinetics, CBL-B. As to conditions: SPR at 10° C., biotinylated WT CBL-B (36-427) on streptavidin chip; geometric mean; read-out: CBL-B SPR Kd (nM) GMean. In outline: as §1

A further assay concerns the target T4, CBL-B (residues 36-427) (Homo sapiens, UniProt Q13191).
T4 construct: Purified CBL-B (residues 36-427) and C-CBL (residues 46-435) proteins from baculovirus-infected insect cells; made in house; host or cells: baculovirus-infected insect cells
As to the kind of experiment: Ligand Displacement Assay (LDA), HTRF competitive binding against BODIPY-labeled fluorescent tracer, CBL-B. As to conditions: geometric mean of the number of tests, read-out: CBL-B Ki (nM) GMean. In outline:
as §2

On to `Cn1cnnc1CC1(c2cccc(-c3n[nH]c4c(CN[C@@H]5CCOC5)nc(C(F)(F)F)cc34)c2)COC1` [Example C59], for which the Kd at C-CBL (46-435) came to 230 nM; on WT CBL-B (36-427) it was 16.8 nM. For the same molecule, the Ki is 171 nM at C-CBL (residues 46-435) and 45.2 nM at CBL-B (residues 36-427).

With `CNCc1nc(C(F)(F)F)cc2c(-c3cccc([C@H](c4nncn4C)C4CCC4)c3)n[nH]c12` [Example C103, 1-[3-{3-[(R)-cyclobutyl(4-methyl-4H-1,2,4-triazol-3-yl)methyl]phenyl}-5-(trifluoromethyl)-1H-pyrazolo[3,4-c]pyridin-7-yl]-N-methylmethanamine], the Kd at C-CBL (46-435) stood at 349 nM; at WT CBL-B (36-427) it was 20.5 nM. For the same molecule, the Ki on C-CBL (residues 46-435) was 389 nM; on CBL-B (residues 36-427) it was 46 nM.

As to `Cn1cnnc1[C@@H](c1cccc(-c2n[nH]c3cnc(Cl)cc23)c1)C1CCC1` [Example A3, 5-chloro-3-{3-[(R)-cyclobutyl(4-methyl-4H-1,2,4-triazol-3-yl)methyl]phenyl}-1H-pyrazolo[3,4-c]pyridine], the Kd was determined as 301 nM on C-CBL (46-435) and 12.9 nM on WT CBL-B (36-427). Also, the Ki on C-CBL (residues 46-435) turned out to be 362 nM; at CBL-B (residues 36-427), 31.1 nM.

`C[C@@H](c1nc(C(F)(F)F)cc2c(-c3cccc(C4(Cc5nncn5C)COC4)c3)n[nH]c12)N1CC[C@H](F)C1` (single isomer, unassigned) [Example D97]: the results for the Kd at C-CBL (46-435) and at WT CBL-B (36-427) were 230 nM and 31.9 nM, respectively. The Ki at C-CBL (residues 46-435) came to 139 nM; on CBL-B (residues 36-427) it was 25 nM.

Turning to `Cn1cnnc1CC1(c2cccc(-c3n[nH]c4cnc(OC(F)F)cc34)c2)COC1` [Example B10, 5-(difluoromethoxy)-3-(3-{3-[(4-methyl-4H-1,2,4-triazol-3-yl)methyl]oxetan-3-yl}phenyl)-1H-pyrazolo[3,4-c]pyridine], the Kd at C-CBL (46-435) worked out at 141 nM; at WT CBL-B (36-427), 22.2 nM. The Ki came out at 187 nM at C-CBL (residues 46-435) and 57.8 nM at CBL-B (residues 36-427).

Consider `Cn1cnnc1CC1(c2cccc(-c3n[nH]c4c(CN5CCCC5)nc(C(F)(F)F)cc34)c2)COC1` [Example C62, 3-(3-{3-[(4-methyl-4H-1,2,4-triazol-3-yl)methyl]oxetan-3-yl}phenyl)-7-[(pyrrolidin-1-yl)methyl]-5-(trifluoromethyl)-1H-pyrazolo[3,4-c]pyridine], for which the equilibrium dissociation constant (Kd) was found to be 111 nM on C-CBL (46-435) and 8.6 nM on WT CBL-B (36-427). Moreover, the Ki at C-CBL (residues 46-435) is 162 nM; on CBL-B (residues 36-427), 34.3 nM.

Regarding `Cn1cnnc1[C@@H](c1cccc(-c2n[nH]c3c(CN[C@@H]4CC[C@H](O)C4)nc(C(F)(F)F)cc23)c1)C1CCC1` [Example D34], the Kd is 101 nM at C-CBL (46-435) and 1.8 nM on WT CBL-B (36-427). Also, the Ki at C-CBL (residues 46-435) was determined as 59.9 nM; on CBL-B (residues 36-427), 6.5 nM.

As for `C[C@H](c1nc(C(F)(F)F)cc2c(-c3cccc(C4(Cc5nncn5C)COC4)c3)n[nH]c12)N1CCNC(=O)C1` (single isomer, unassigned) [Example D52], the Kd on C-CBL (46-435) came out at 79.1 nM; at WT CBL-B (36-427) it was 10.1 nM. In addition, the figures for the Ki at C-CBL (residues 46-435) and at CBL-B (residues 36-427) were 118 nM and 31.9 nM, respectively.

Consider `Cn1cnnc1[C@@H](c1cccc(-c2n[nH]c3c(CN4C[C@@H](O)[C@H](O)C4)nc(C(F)(F)F)cc23)c1)C1CCC1` [Example C74, (3R,4R)-1-{[3-{3-[(R)-cyclobutyl(4-methyl-4H-1,2,4-triazol-3-yl)methyl]phenyl}-5-(trifluoromethyl)-1H-pyrazolo[3,4-c]pyridin-7-yl]methyl}pyrrolidine-3,4-diol], for which the values for the Kd on C-CBL (46-435) and on WT CBL-B (36-427) were 103 nM and 3.2 nM, respectively. The Ki on C-CBL (residues 46-435) worked out at 83.1 nM; at CBL-B (residues 36-427) it was 7.5 nM.

Consider `Cn1cnnc1CC1(c2cccc(-c3n[nH]c4c(CN5CCC(F)(F)C5)nc(C(F)(F)F)cc34)c2)COC1` [Example C70, 7-[(3,3-difluoropyrrolidin-1-yl)methyl]-3-(3-{3-[(4-methyl-4H-1,2,4-triazol-3-yl)methyl]oxetan-3-yl}phenyl)-5-(trifluoromethyl)-1H-pyrazolo[3,4-c]pyridine], for which the Kd at C-CBL (46-435) is 80 nM; at WT CBL-B (36-427) it was 6 nM. Moreover, the results for the Ki at C-CBL (residues 46-435) and at CBL-B (residues 36-427) were 113 nM and 20.6 nM, respectively.

Turning to `Cn1cnnc1[C@@H](c1cccc(-c2n[nH]c3c(C4CCCCN4)nc(C(F)(F)F)cc23)c1)C1CCC1` (single isomer, unassigned) [Example L1], the Kd on C-CBL (46-435) is 697 nM; on WT CBL-B (36-427), 40.7 nM. Further, the Ki worked out at 439 nM on C-CBL (residues 46-435) and 74.2 nM at CBL-B (residues 36-427).

`C[C@@H](c1nc(C(F)(F)F)cc2c(-c3cccc(C4(Cc5nncn5C)COC4)c3)n[nH]c12)N1CC(F)C1` (single isomer, unassigned) [Example D43]: the Kd at C-CBL (46-435) came to 80.2 nM; at WT CBL-B (36-427), 6.7 nM. The Ki at C-CBL (residues 46-435) was determined as 75.1 nM; at CBL-B (residues 36-427) it was 14.5 nM.

As for `Cn1cnnc1[C@@H](c1cccc(-c2n[nH]c3c(CN4C[C@@H](O)[C@@H](O)C4)nc(C(F)(F)F)cc23)c1)C1CCC1` [Example C75, (3R,4S)-1-{[3-{3-[(R)-cyclobutyl(4-methyl-4H-1,2,4-triazol-3-yl)methyl]phenyl}-5-(trifluoromethyl)-1H-pyrazolo[3,4-c]pyridin-7-yl]methyl}pyrrolidine-3,4-diol], the Kd is 97.9 nM at C-CBL (46-435) and 4.7 nM on WT CBL-B (36-427). Besides, the Ki at C-CBL (residues 46-435) was determined as 54.8 nM; on CBL-B (residues 36-427), 5 nM.

For `C[C@H]1CN(Cc2nc(C(F)(F)F)cc3c(-c4cccc(C5(Cc6nncn6C)COC5)c4)n[nH]c23)CCO1` [Example C58, 7-{[(2S)-2-methylmorpholin-4-yl]methyl}-3-(3-{3-[(4-methyl-4H-1,2,4-triazol-3-yl)methyl]oxetan-3-yl}phenyl)-5-(trifluoromethyl)-1H-pyrazolo[3,4-c]pyridine], the Kd on C-CBL (46-435) amounted to 54.1 nM; on WT CBL-B (36-427) it was 5.8 nM. For the same molecule, the Ki at C-CBL (residues 46-435) was 82.4 nM; on CBL-B (residues 36-427), 14.8 nM.

Consider `CC(N[C@@H]1CCOC1)c1nc(C(F)(F)F)cc2c(-c3cccc(C4(Cc5nncn5C)COC4)c3)n[nH]c12` (single isomer, unassigned) [Example C85], for which the Kd amounted to 82.5 nM at C-CBL (46-435) and 2.1 nM on WT CBL-B (36-427). Also, the Ki was 92.5 nM on C-CBL (residues 46-435) and 15.2 nM on CBL-B (residues 36-427).

As to `C[C@H](c1nc(C(F)(F)F)cc2c(-c3cccc(C4(Cc5nncn5C)COC4)c3)n[nH]c12)N(C)C` (single isomer, unassigned) [Example D40], the Kd was determined as 88.5 nM at C-CBL (46-435) and 5.5 nM at WT CBL-B (36-427). Further, the results for the Ki on C-CBL (residues 46-435) and at CBL-B (residues 36-427) were 98.1 nM and 23.9 nM, respectively.

Consider `CC(C)NCc1nc(C(F)(F)F)cc2c(-c3cccc(C4(Cc5nncn5C)COC4)c3)n[nH]c12` [Example C53, N-{[3-(3-{3-[(4-methyl-4H-1,2,4-triazol-3-yl)methyl]oxetan-3-yl}phenyl)-5-(trifluoromethyl)-1H-pyrazolo[3,4-c]pyridin-7-yl]methyl}propan-2-amine], for which the Kd at C-CBL (46-435) worked out at 747 nM; at WT CBL-B (36-427), 61.8 nM. The Ki at C-CBL (residues 46-435) is 312 nM; on CBL-B (residues 36-427), 66.6 nM.

Turning to `CN1CCC(Oc2nc(C(F)(F)F)cc3c(-c4cccc(C5(Cc6nncn6C)COC5)c4)n[nH]c23)C1` (stereo in doubt) [Example J2, 7-{[(3S)-1-methylpyrrolidin-3-yl]oxy}-3-(3-{3-[(4-methyl-4H-1,2,4-triazol-3-yl)methyl]oxetan-3-yl}phenyl)-5-(trifluoromethyl)-1H-pyrazolo[3,4-c]pyridine], the Kd is 37.6 nM at C-CBL (46-435) and 4.8 nM at WT CBL-B (36-427). Further, the results for the Ki at C-CBL (residues 46-435) and at CBL-B (residues 36-427) were 76.6 nM and 19.1 nM, respectively.

`C[C@@H](N)c1nc(C(F)(F)F)cc2c(-c3cccc([C@H](c4nncn4C)C4CCC4)c3)n[nH]c12` [Example K13, (1R)-1-[3-{3-[(R)-cyclobutyl(4-methyl-4H-1,2,4-triazol-3-yl)methyl]phenyl}-5-(trifluoromethyl)-1H-pyrazolo[3,4-c]pyridin-7-yl]ethan-1-amine]: the Kd at C-CBL (46-435) was 285 nM; on WT CBL-B (36-427) it was 12.1 nM. For the same molecule, the Ki was 215 nM at C-CBL (residues 46-435) and 27 nM on CBL-B (residues 36-427).

For the molecule `C[C@H](N[C@H]1C[C@H](O)C1)c1nc(C(F)(F)F)cc2c(-c3cccc([C@H](c4nncn4C)C4CCC4)c3)n[nH]c12` (single isomer, unassigned) [Example C91], the Kd on C-CBL (46-435) came to 129 nM; on WT CBL-B (36-427) it was 5.1 nM. Besides, the Ki on C-CBL (residues 46-435) worked out at 105 nM; on CBL-B (residues 36-427), 12.7 nM.
